Measured values from patent publication US20100068302A1, “METHODS AND COMPOSITIONS FOR THE TREATMENT OF CANCER” (TRASLATIONAL CANCER DRUGS PHARMA, S.L., priority 2008, published 2010).
Several values for one entry are separate records, joined by “and”; a condition that tells them apart may be missing. Equal values may be shown once. Read-outs that look alike come from different tables or passages of the source.

How the values were obtained:
[1] = tested on: H460 non-small lung cancer cells; test: Cell proliferation assay (MTT), H460; type: cell-based, human
[2] = tested on: primary cultures of resected NSCLC tumours; test: Primary cultures of NSCLC tumours treated 10 days, Cristal Violet quantification; type: cell-based, human; conditions: for RESISTANT (% of samples) / RESISTANT (number of tumour samples) / SENSITIVES (% of samples) / SENSITIVES (number of tumour samples): primary NSCLC tumour cultures, 0-20 μM, 10 days
Text: Specimens of lung cancer tissue from 84 randomly selected patients who underwent surgical resection of NSCLC between 2001 and 2004 and that were followed up by The Medical Oncology division at La Paz Hospital in Madrid were used for this analysis. No adjuvant therapy was administrated to these patients. The study was approved by the institutional review board of the hospitals, and written informed consent was obtained from all patients.
Resected tissues from NSCLC patients were dissociated (Cell dissociation sieve-tissued grinder Kit CD1, SIGMA), and the obtained cells were seeded in 24 well plates (BD, Falcon, Bioscience, San Jose, Calif., USA). […] The final persistent population in each well was quantified by the method of Cristal Violet as previously described (Rodríguez-González, A. et al., Oncogene, 22:8803-8812). […]

[3] = tested on: H82 small cell lung cancer cells; test: Cell proliferation assay (MTT), H82; type: cell-based; conditions: Homo sapiens
Procedure: (§1) All cell lines used in this study were maintained under standard conditions of temperature (37° C.), humidity (95%), and carbon dioxide (5%). Human primary bronchial epithelial cells, NHBE (BEC) (Cambrex, CC-2541) were grown in BEGM (Bronchial Epithelial cell growth media) BulletKit (Cambrex, CC-3170). Human primary mammary epithelial cells, HMEC (Clonetics, CC-2551) were grown in MEBM medium supplemented with a bullet kit (Clonetics, CC-3150). Epithelial non-small lung cancer cells H460 and H1299, and small cell lung cancer cell lines H510 and H82 were maintained in RPMI supplemented with 10% Fetal Bovine Serum (FBS) (Life Technologies, Grand Island, N.Y.).
(§2) Cells were seeded on 96-well plates (B D, Falcon, Bioscience, San Jose, Calif., USA) at a density of 6000 cells/well, and incubated for 24 h under standard conditions. […] Absorbance is read at 595 nm in a VersaMax Microplate Reader (Molecular Devices, Sunnyvale, Calif., USA). For sensitization with acid ceramidase inhibitor, cells were pre-treated 4 hours with the correspondent IC50 for NOE before treatment with ChoK inhibitors. NOE (N-Oleoyl ethanolamine) was obtained from Calbiochem (La Jolla, Calif., USA).

[4] = tested on: H510 small cell lung cancer cells; test: Cell proliferation assay (MTT), H510; type: cell-based; conditions: Homo sapiens
Procedure: as §1, §2

[5] = tested on: Human primary bronchial epithelial cells, NHBE (BEC); test: Cell proliferation assay (MTT), Primary BEC; type: cell-based
Procedure: as §1, §2

[6] = tested on: H1299 non-small lung cancer cells; test: Cell proliferation assay (MTT), H1299; type: cell-based; conditions: Homo sapiens
Procedure: as §1, §2

[7] = tested on: Human primary mammary epithelial cells, HMEC; test: Cell proliferation assay (MTT), Primary HMEC; type: cell-based
Procedure: as §1, §2

H460 RSM-932AR cells = test: Cell proliferation assay (MTT), H460 line resistant to RSM-932A; type: cell-based, human
Procedure: (§3) Cell lines resistant to MN58b and RSM-932A (identified as MN58R and RSM-932A-R, respectively) were generated by prolonged continuous exposure to increasing concentrations of each drug. A parallel control (H460 stock) of the cell line in the absence of the compounds was kept in culture for the same time.
as §2, with “conditions. Then, cells were treated with different concentrations of the ChoK inhibitors (quadruplicates of each concentration) and maintained for 72 hours.” for “conditions.”
(§4) To further study the mechanism underlying resistance to ChoK inhibition, as well as the implication of acid ceramidase in this effect, we used the human NSCLC-derived H460 cell line for a set of in vitro experiments. […]

H460 MN58R cells = test: Cell proliferation assay (MTT), H460 line resistant to MN58b; type: cell-based, human
Procedure: as §3
as §2, with “conditions. Then, cells were treated with different concentrations of the ChoK inhibitors (quadruplicates of each concentration) and maintained for 72 hours.” for “conditions.”
as §4

H460 cells = test: Combination index assay (Chou Talalay) cisplatin plus ChoK inhibitors; type: cell-based, human; conditions: cisplatin 3 h followed by 40 h of ChoK inhibitor, CI<1 synergistic, CIs<0.5 strong synergistic
Procedure: All experiments were performed in quadruplicate.

H460stock cells = test: Cell proliferation assay (MTT), H460stock control line; type: cell-based, human
Procedure: as §3
as §2, with “conditions. Then, cells were treated with different concentrations of the ChoK inhibitors (quadruplicates of each concentration) and maintained for 72 hours.” for “conditions.”
as §4

[8] = tested on: SW620 colon cancer derived cells; test: MTT cytotoxicity, ChoKI and TRAIL, SW620; conditions: SW620 (FIG. 7B)
Text: (§5) To that end, five colon cancer derived cell lines were used: DLD-1, HT-29, HCT-116, SW620 and SW480.

[9] = tested on: HT-29 colon cancer derived cells; test: MTT cytotoxicity, ChoKI and TRAIL, HT-29; conditions: HT-29, drug alone
Text: as §5

[10] = tested on: DLD-1, HT-29, HCT-116, SW620 and SW480; test: MTT sensitivity in five colon cancer derived cell lines; type: cell-based; conditions: five colon cancer derived cell lines (FIG. 7)
Text: as §5

[11] = tested on: DLD-1 colon cancer derived cells; test: MTT cytotoxicity, ChoKI and TRAIL, DLD-1; conditions: DLD-1, drug alone
Text: as §5

[12] = Homo sapiens, NCI-H460, 72 h, H460, single agent (Table 7), read-out: IC50 72 h
[13] = of 84 patients, nearly 100% of cells alive at 20 μM at day 10
[14] = Homo sapiens, NCI-H460, read-out: IC50

CCCCCCCC/C=C\CCCCCCCC(=O)NCCO [NOE, N-oleoylethanolamine, reference compound]
IC50 [1, 12]: 32500 nM

CC(=O)O[C@H]1C(=O)[C@@]2(C)[C@H]([C@H](OC(=O)c3ccccc3)[C@]3(O)C[C@H](OC(=O)[C@H](O)[C@@H](NC(=O)c4ccccc4)c4ccccc4)C(C)=C1C3(C)C)[C@]1(OC(C)=O)CO[C@@H]1C[C@@H]2O [Taxol]
RESISTANT (% of samples) [2]: 56.5% | RESISTANT (number of tumour samples) [2]: 35 | SENSITIVES (% of samples) [2]: 43.5% | SENSITIVES (number of tumour samples) [2]: 27

CCC1=C[C@@H]2CN(C1)Cc1c([nH]c3ccccc13)[C@@](C(=O)OC)(c1cc3c(cc1OC)N(C)[C@H]1[C@@](O)(C(=O)OC)[C@H](OC(C)=O)[C@]4(CC)C=CCN5CC[C@]31[C@@H]54)C2 [Vinolrelbine, vinorelbine]
RESISTANT (% of samples) [2]: 61.5% | RESISTANT (number of tumour samples) [2]: 24 | SENSITIVES (% of samples) [2]: 38.5% | SENSITIVES (number of tumour samples) [2]: 15

Nc1ccn([C@@H]2O[C@H](CO)[C@@H](O)C2(F)F)c(=O)n1 [Gemcitabine]
RESISTANT (% of samples) [2]: 65.4% | RESISTANT (number of tumour samples) [2]: 34 | SENSITIVES (% of samples) [2]: 34.6% | SENSITIVES (number of tumour samples) [2]: 18

CN(C)c1cc[n+](Cc2ccc(CCCCc3ccc(C[n+]4ccc(N(C)C)cc4)cc3)cc2)cc1 [MN58b, 1,4-(4-4′-Bis-((4-(dimethylamine)pyridinium-1-yl)methyl)diphenyl)butane dibromide]
IC50 ([3]; H82, 48 h, read-out: IC50 48 h): 1900 ± 200 nM | IC50 ([3]; H82, 72 h, read-out: IC50 72 h): 800 ± 40 nM | IC50 ([3]; H82, 144 h, read-out: IC50 144 h): 270 ± 10 nM | IC50 ([4]; NCI-H510, 48 h, read-out: IC50 48 h): 1100 ± 100 nM | IC50 ([4]; NCI-H510, 72 h, read-out: IC50 72 h): 400 ± 50 nM | IC50 ([4]; NCI-H510, 144 h, read-out: IC50 144 h): 100 ± 30 nM | IC50 ([5]; 48 h, read-out: IC50 48 h): 40500 ± 6200 nM | IC50 ([5]; 72 h, read-out: IC50 72 h): 18300 ± 4800 nM | IC50 ([5]; 144 h, read-out: IC50 144 h): 4200 ± 800 nM | samples highly sensitive (%) ([2]; among the 45 sensitive tumours): 33.3% | samples partially sensitive (%) ([2]; among the 45 sensitive tumours): 66.7% | samples partially sensitive (number) ([2]; among the 45 sensitive tumours, around 50% of cells alive at end of treatment): 30 | samples highly sensitive (number) ([2]; among the 45 sensitive tumours, viability abolished at low concentrations, day 10): 15 | tumours sensitive to the antiproliferative effect (%) ([2]; of 84 patients, day 10): 53.6% | tumours sensitive to the antiproliferative effect (number) ([2]; of 84 patients, day 10): 45 | samples fully resistant (%) [2, 13]: 46,4% | samples fully resistant (number) [2, 13]: 39 | RESISTANT (% of samples) [2]: 44.4% | RESISTANT (number of tumour samples) [2]: 28 | SENSITIVES (% of samples) [2]: 55.5% and 55% | SENSITIVES (number of tumour samples) [2]: 35 | IC50 ([6]; NCI-H1299, 48 h, read-out: IC50 48 h): 10300 ± 2500 nM | IC50 ([6]; NCI-H1299, 72 h, read-out: IC50 72 h): 2700 ± 700 nM | IC50 ([6]; NCI-H1299, 144 h, read-out: IC50 144 h): 900 ± 100 nM | IC50 ([7]; 48 h, read-out: IC50 48 h): 44700 ± 4950 nM | IC50 ([7]; 72 h, read-out: IC50 72 h): 20900 ± 2700 nM | IC50 ([7]; 144 h, read-out: IC50 144 h): 3400 ± 130 nM | IC50 (H460 RSM-932AR cells; [14]): 28800 nM | IC50 (H460 MN58R cells; [14]): 19200 nM | IC50 ([1]; Homo sapiens, NCI-H460, 48 h, H460, 48 h, read-out: IC50 48 h): 7030 ± 2030 nM | IC50 ([1]; Homo sapiens, NCI-H460, 72 h, H460, 72 h (Table 6), read-out: IC50 72 h): 2600 ± 800 nM | IC50 [1, 12]: 280 nM | IC50 ([1]; Homo sapiens, NCI-H460, 144 h, H460, 144 h, read-out: IC50 144 h): 1100 ± 100 nM | IC50 ([1]; Homo sapiens, NCI-H460, H460 (Table 8), read-out: IC50): 280 nM | Combination index (CI) with cisplatin (H460 cells): 0.1 | IC50 (H460stock cells; Homo sapiens, read-out: IC50): 390 nM

TRAIL: extracellular domain of human TRAIL (amino acids 95-281)
sensitivity to treatment [8]: nearly resistant | cytotoxicity [9]: 18% | sensitivity across the cell lines [10]: very similar for all cell lines except for SW620 | cytotoxicity, percentage of cell death [11]: 12%

[NH2][Pt]([NH2])([Cl])[Cl] [cDDP, cisplatin, reference compound]
RESISTANT (% of samples) [2]: 50% | RESISTANT (number of tumour samples) [2]: 31 | SENSITIVES (% of samples) [2]: 50% | SENSITIVES (number of tumour samples) [2]: 31 | IC50 (H460 RSM-932AR cells): 1.5 µg/mL | IC50 (H460 MN58R cells): 2 µg/mL | IC50 ([1]; H460): 5 µg/mL | IC50 (H460stock cells): 4.5 µg/mL
